Experimental data: article PMC3423582 (Bioorganic & medicinal chemistry letters, 2012)
“Also recorded” adds a separate entry of the source.

Legend:
[1] = tested on: seven cell lines (MCF7, HT-1080, U2OS, RKO, H1299, BJ-TERT, BJ-TERT/LT/ST/RAS^V12); experiment: Lethality across the panel of seven cell lines; type: cell-based; conditions: summary of Table 1
BJ-TERT/LT/ST/RAS^V12 [2] = experiment: Lethality; type: cell-based; conditions: ratio of LC50 values
BJ-TERT/LT/ST/RAS^V12 [3] = experiment: Kinetic analysis of induced cell death; type: cell-based; conditions: treated at the LC90 (30 µM)
BJ-TERT/LT/ST/RAS^V12 [4] = experiment: Cell death by photograph after 24 hours; type: cell-based; conditions: compound 27 30 µM, staurosporine 1 µM
BJ-TERT [5] = experiment: Cell death by photograph after 24 hours; type: cell-based; conditions: compound 27 30 µM, staurosporine 1 µM
[6] = tested on: caspase 3/7 in BJ-TERT/LT/ST/RAS^V12 cells; experiment: Caspase 3/7 activation; type: cell-based; conditions: 28 hours, two-fold 14-point dilution series, Apo-ONE
[7] = tested on: caspase 3/7 in BJ-TERT cells; experiment: Caspase 3/7 activation; type: cell-based; conditions: 28 hours, two-fold 14-point dilution series, Apo-ONE
HT1080 cells = experiment: Modulatory profiling: suppression of lethality by biologically active compounds; type: cell-based, human; conditions: z-VAD-fmk (45 µM) or Boc-D-fmk (50 µM)
BJ-TERT [8] = conditions: read-out: EC50 (BJ-TERT); cited from earlier work
BJ-TERT/LT/ST/RAS^V12 [9] = conditions: read-out: EC50 (BJ-TERT/LT/ST/RAS^V12); cited from earlier work

SMILES: CC(CC1C(=O)N(C)C(=O)N(C)C1=O)C1c2c(c3ccccc3n2C(=O)OC(C)(C)C)CCN1C(=O)OC(C)(C)C (centres unmarked) [Compound 21]
- Lethality across the seven cell lines (in words) [1]: modest to good potency in six cell lines; also recorded: showed lethality in at least five cell lines

SMILES: COC(OC)C1c2[nH]c3ccccc3c2CCN1C(=O)OCc1ccccc1 (centres unmarked) [Compound 34]
- Lethality across the seven cell lines (in words) [1]: showed lethality in at least five cell lines

SMILES: CCOC(=O)C1c2[nH]c3ccccc3c2CCN1C(=O)OCc1ccccc1 (centres unmarked) [Compound 29]
- Lethality across the seven cell lines (in words) [1]: showed lethality in at least five cell lines

SMILES: CCOC(=O)C1c2c(c3ccccc3n2C)CCN1C(=O)OC (centres unmarked) [Compound 27]
- Enhancement of lethality compared with compound 1 in BJ-TERT/LT/ST/RAS^V12 (BJ-TERT/LT/ST/RAS^V12 [2]): four fold enhancement
- Time at which compound started to kill cells (BJ-TERT/LT/ST/RAS^V12 [3]): ≤ 12 h
- Time to complete cell death (BJ-TERT/LT/ST/RAS^V12 [3]): ≤ 24 h
- Cell death in BJ-TERT/LT/ST/RAS^V12 cells (BJ-TERT/LT/ST/RAS^V12 [4]): observed only in BJ-TERT/LT/ST/RAS^V12 cells
- Cell death in BJ-TERT cells (BJ-TERT [5]): not BJ-TERT
- Caspase 3/7 activation in BJ-TERT/LT/ST/RAS^V12 [6]: failed to induced caspase 3/7 activation
- Caspase 3/7 activation in BJ-TERT [7]: does not induce caspase activation
- Effect of caspase inhibitors on the compound's lethality (HT1080 cells): not inhibited
- Lethality across the seven cell lines (in words) [1]: showed lethality in at least five cell lines; also recorded: effective in inducing cell death in six out of seven cell lines

SMILES: CN1C(=O)C(C2NC=Cc3c2[nH]c2ccccc32)C(=O)N(C)C1=O (centres unmarked) [Compound 2a, 5-(2,9-dihydro-1H-pyrido[3,4-b]indol-1-yl)-1,3-dimethylpyrimidine-2,4,6(1H,3H,5H)-trione]
- Enhancement of lethality compared with compound 1 in BJ-TERT/LT/ST/RAS^V12 (BJ-TERT/LT/ST/RAS^V12 [2]): two-fold more lethal
- Lethality across the seven cell lines (in words) [1]: showed lethality in at least five cell lines

SMILES: CC(C)(C)OC(=O)N1CCc2c(n(C(=O)OC(C)(C)C)c3ccccc23)C1CC=O (centres unmarked) [Compound 13]
- Lethality across the seven cell lines (in words) [1]: showed lethality in at least five cell lines

SMILES: COC(=O)c1ccc(C2c3[nH]c4ccccc4c3CC(C(=O)OC)N2C(=O)CCl)cc1 (centres unmarked) [RSL3]
- EC50 (BJ-TERT [8]): 2.8 µM
- EC50 (BJ-TERT/LT/ST/RAS^V12 [9]): 0.365 µM

SMILES: CC(C=O)C1c2c(c3ccccc3n2C(=O)OC(C)(C)C)CCN1C(=O)OC(C)(C)C (centres unmarked) [Compound 20]
- Lethality across the seven cell lines (in words) [1]: showed lethality in at least five cell lines

SMILES: CN1C(=O)C(Cc2nccc3c4ccccc4n(C)c23)C(=O)N(C)C1=O [Compound 8]
- Lethality across the seven cell lines (in words) [1]: slightly more active

SMILES: CN[C@@H]1C[C@H]2O[C@@](C)([C@@H]1OC)n1c3ccccc3c3c4c(c5c6ccccc6n2c5c31)C(=O)NC4 [Staurosporine, reference compound]
- Cell death in BJ-TERT/LT/ST/RAS^V12 cells (BJ-TERT/LT/ST/RAS^V12 [4]): induced cell death
- Cell death in BJ-TERT cells (BJ-TERT [5]): induced cell death

SMILES: CCOc1ccccc1-n1c(C(C)N2CCN(C(=O)COc3ccc(Cl)cc3)CC2)nc2ccccc2c1=O (centres unmarked) [erastin]
- EC50 (BJ-TERT [8]): 23.7 µM
- EC50 (BJ-TERT/LT/ST/RAS^V12 [9]): 3.9 µM
